Like-named read-outs stand apart in the source and are kept apart here.
What was measured:
BTK [1] = target: T1, BTK (Homo sapiens (Human), UniProt Q06187); experiment: Omnia assay for potency assessment against BTK; type: biochemical; conditions: [BTK]=5 nM, Omnia assay; read-out: BTK Inhibition (IC50)
Procedure: The modified BTK-optimized reagent conditions for the above protocol are:
[BTK]=5 nM, [ATP]=[…], [Y5-Sox]=[…] (ATP KMapp˜[…]).

BTK [2] = target: T1, BTK; experiment: BTK Ramos cellular assay (PLCγ2 phosphorylation); type: cell-based; conditions: Ramos cells, 1 hour compound, anti-IgM stimulation, p-PLCγ2; read-out: BTK Inhibition (IC50), BTK Ramos cellular inhibition
ITK = ITK (Homo sapiens (Human), UniProt Q08881); experiment: Omnia assay for potency assessment against active forms of ITK kinase; type: biochemical; conditions: [ITK]=10 nM, [ATP]=25, [Y6-Sox]=10 μM; read-out: ITK Inhibition
ITK, sequence (Q08881 whole entry): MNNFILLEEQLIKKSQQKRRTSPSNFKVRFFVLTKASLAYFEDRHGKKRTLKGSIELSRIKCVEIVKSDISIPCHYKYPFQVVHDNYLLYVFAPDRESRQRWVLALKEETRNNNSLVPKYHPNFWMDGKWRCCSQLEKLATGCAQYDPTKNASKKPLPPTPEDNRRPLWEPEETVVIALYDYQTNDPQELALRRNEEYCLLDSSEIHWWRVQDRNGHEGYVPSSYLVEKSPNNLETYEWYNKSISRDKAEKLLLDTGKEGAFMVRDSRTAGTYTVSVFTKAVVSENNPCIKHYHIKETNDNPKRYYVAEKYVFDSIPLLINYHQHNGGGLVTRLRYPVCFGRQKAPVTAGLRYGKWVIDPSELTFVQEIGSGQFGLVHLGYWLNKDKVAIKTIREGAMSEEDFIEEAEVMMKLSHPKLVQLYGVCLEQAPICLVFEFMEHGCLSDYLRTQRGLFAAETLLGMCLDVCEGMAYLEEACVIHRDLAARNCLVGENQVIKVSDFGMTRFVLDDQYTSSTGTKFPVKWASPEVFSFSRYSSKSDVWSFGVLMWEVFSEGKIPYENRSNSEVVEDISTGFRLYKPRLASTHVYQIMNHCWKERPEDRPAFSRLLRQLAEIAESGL
Procedure: [ITK]=10 nM, [ATP]=25 [Y6-Sox]=10 μM (ATP KMapp=33 μM).

EGFR-WT = EGFR-WT (Homo sapiens (Human), UniProt P00533); experiment: Omnia assay for potency assessment against EGFR (WT)
EGFR-WT, sequence (P00533 668-1210): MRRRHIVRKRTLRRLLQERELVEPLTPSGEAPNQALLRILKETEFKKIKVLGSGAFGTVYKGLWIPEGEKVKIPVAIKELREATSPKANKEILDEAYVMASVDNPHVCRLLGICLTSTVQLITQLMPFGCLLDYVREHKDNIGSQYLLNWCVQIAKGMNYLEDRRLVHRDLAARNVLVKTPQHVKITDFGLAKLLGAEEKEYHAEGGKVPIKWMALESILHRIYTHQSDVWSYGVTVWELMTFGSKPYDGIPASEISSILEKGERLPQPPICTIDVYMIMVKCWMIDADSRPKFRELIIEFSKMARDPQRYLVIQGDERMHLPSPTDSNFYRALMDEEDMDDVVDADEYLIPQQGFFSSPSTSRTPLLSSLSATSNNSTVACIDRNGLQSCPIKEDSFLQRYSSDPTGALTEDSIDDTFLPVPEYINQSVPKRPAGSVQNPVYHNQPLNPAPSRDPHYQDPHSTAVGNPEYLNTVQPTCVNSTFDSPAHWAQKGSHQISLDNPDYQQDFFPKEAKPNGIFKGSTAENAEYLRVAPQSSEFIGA

[3] = read-out: EGFR (wild type inhibition), EGFR wild type

T1 sequence (Q06187 whole entry): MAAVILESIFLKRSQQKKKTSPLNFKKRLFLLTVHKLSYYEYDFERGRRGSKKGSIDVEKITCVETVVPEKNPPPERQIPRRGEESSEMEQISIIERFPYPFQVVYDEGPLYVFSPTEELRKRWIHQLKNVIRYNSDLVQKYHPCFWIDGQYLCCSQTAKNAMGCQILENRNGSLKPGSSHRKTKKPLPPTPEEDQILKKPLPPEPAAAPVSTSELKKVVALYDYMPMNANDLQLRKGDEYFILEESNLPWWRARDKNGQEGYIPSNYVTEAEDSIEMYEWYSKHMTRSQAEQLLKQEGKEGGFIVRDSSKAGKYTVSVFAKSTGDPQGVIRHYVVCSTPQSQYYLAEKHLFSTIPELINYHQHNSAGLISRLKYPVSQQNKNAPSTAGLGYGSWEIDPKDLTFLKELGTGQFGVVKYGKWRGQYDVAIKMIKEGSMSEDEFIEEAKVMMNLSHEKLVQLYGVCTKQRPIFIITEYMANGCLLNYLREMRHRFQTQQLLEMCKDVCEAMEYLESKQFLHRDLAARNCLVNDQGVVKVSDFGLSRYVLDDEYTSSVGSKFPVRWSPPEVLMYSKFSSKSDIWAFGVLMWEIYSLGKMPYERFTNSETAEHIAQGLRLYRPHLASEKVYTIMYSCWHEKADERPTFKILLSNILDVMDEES

Row | Compound | IC50 (BTK [1]) | IC50 (BTK [2]) | IC50 (ITK) | IC50 (EGFR-WT; [3]) | IC50 (EGFR-WT)
1 | C=CC(=O)Nc1cccc(Nc2nc(Nc3cccc(S(N)(=O)=O)c3)ncc2F)c1 [Compound I-160, N-(3-(5-fluoro-2-(3-sulfamoylphenylamino)pyrimidin-4-ylamino)phenyl)acrylamide] | < 10 nM | 10 to 100 nM | < 10 nM | < 10 nM | –
2 | C=CC(=O)Nc1cccc(Nc2nc(Nc3ccc(Cl)c(OCC(C)(C)O)c3)ncc2F)c1 [Compound I-249, N-(3-(2-(4-chloro-3-(2-hydroxy-2-methylpropoxy)phenylamino)-5-fluoropyrimidin-4-ylamino)phenyl)acrylamide] | < 10 nM | < 10 nM | 100 to 1000 nM | – | 100 to 1000 nM
3 | C=CC(=O)Nc1cccc(Nc2nc(Nc3ccc(N(C)CCOC)nc3)ncc2F)c1 [Compound I-77] | < 10 nM | < 10 nM | 10 to 100 nM | – | 10 to 100 nM
4 | C=CC(=O)Nc1cccc(Nc2nc(Nc3ccc(OC(C)C)nc3)ncc2F)c1 [Compound I-172, N-(3-(5-fluoro-2-(6-isopropoxypyridin-3-ylamino)pyrimidin-4-ylamino)phenyl)acrylamide] | < 10 nM | < 10 nM | 10 to 100 nM | – | 100 to 1000 nM
5 | C=CC(=O)N1CCOc2ccc(Nc3nc(Nc4ccc(OCCOC)cc4)ncc3C(C)=O)cc21 [Compound I-150, 1-(6-{5-Acetyl-2-[4-(2-methoxy-ethoxy)-phenylamino]-pyrimidin-4-ylamino}-2,3-dihydro-benzo[1,4]oxazin-4-yl)-propenone] | < 10 nM | 10 to 100 nM | < 10 nM | < 10 nM | –
6 | C=CC(=O)Nc1cccc(Nc2nc(Nc3cccc(OCC(=O)N4CCOCC4)c3)ncc2F)c1 [Compound I-110, N-(3-(5-fluoro-2-(3-(2-morpholino-2-oxoethoxy)phenylamino)pyrimidin-4-ylamino)phenyl)acrylamide] | < 10 nM | 10 to 100 nM | 10 to 100 nM | – | 10 to 100 nM
7 | C=CC(=O)N1CCC[C@@H](Nc2nc(Nc3ccc(OC)nc3)ncc2F)C1 [Compound I-202, (R)-1-(3-(5-fluoro-2-(6-methoxypyridin-3-ylamino)pyrimidin-4-ylamino)piperidin-1-yl)prop-2-en-1-one] | < 10 nM | 100 to 1000 nM | 100 to 1000 nM | – | 100 to 1000 nM
8 | C=CC(=O)Nc1cccc(Nc2nc(Nc3ccc(OCCCS(C)(=O)=O)nc3)ncc2F)c1 [Compound I-80, N-(3-(5-fluoro-2-(6-(3-(methylsulfonyl)propoxy)pyridin-3-ylamino)pyrimidin-4-ylamino)phenyl)acrylamide] | < 10 nM | < 10 nM | < 10 nM | – | 10 to 100 nM
9 | C=CC(=O)Nc1cc(Nc2nc(Nc3ccc(OCCOC)cc3)ncc2F)ccc1Cl [Compound I-108, N-(2-chloro-5-(5-fluoro-2-(4-(2-methoxyethoxy)phenylamino)pyrimidin-4-ylamino)phenyl)acrylamide] | < 10 nM | 10 to 100 nM | 10 to 100 nM | – | 100 to 1000 nM
10 | C=CC(=O)N(C)Cc1ccc(Nc2nc(Nc3ccc(OC)nc3)ncc2F)cc1 [Compound I-114, N-(4-(5-fluoro-2-(6-methoxypyridin-3-ylamino)pyrimidin-4-ylamino)benzyl)-N-methylacrylamide] | < 10 nM | 10 to 100 nM | 1000 to 10000 nM | 1000 to 10000 nM | –
11 | C=CC(=O)Nc1cccc(Nc2nc(Nc3ccc4c(c3)N(S(C)(=O)=O)CCO4)ncc2F)c1 [Compound I-140, N-(3-(2-(4-methylsulfonyl-2,3-dihydrobenzo[1,4]oxazin-6-yl)amino-5-fluoropyrimidin-4-ylamino)phenyl)acrylamide] | < 10 nM | 10 to 100 nM | 10 to 100 nM | – | 10 to 100 nM
12 | C=CC(=O)Nc1cccc(Oc2nc(Nc3ccc(OC)nc3)ncc2C)c1 [Compound I-186, N-(3-(2-(6-methoxypyridin-3-ylamino)-5-methylpyrimidin-4-yloxy)phenyl)acrylamide] | < 10 nM | < 10 nM | < 10 nM | < 10 nM | –
13 | C=CC(=O)Nc1cccc(Nc2nc(Nc3ccc(OC4CCC4)nc3)ncc2F)c1 [Compound I-79, N-(3-(2-(6-cyclobutoxypyridin-3-ylamino)-5-fluoropyrimidin-4-ylamino)phenyl)acrylamide] | < 10 nM | < 10 nM | 10 to 100 nM | – | 100 to 1000 nM
14 | C=CC(=O)Nc1cccc(Oc2nc(Nc3ccc(OC)nc3)ncc2C(=O)Nc2ccccc2)c1 [Compound I-159, 4-(3-acrylamidophenoxy)-2-(6-methoxypyridin-3-ylamino)-pyrimidine-5-carboxylic acid phenylamide] | < 10 nM | 100 to 1000 nM | 100 to 1000 nM | < 10 nM | –
15 | C=CC(=O)N1Cc2ccc(Nc3nc(Nc4ccc(OC)nc4)ncc3F)cc2C1 [Compound I-165, 1-(5-(5-fluoro-2-(6-methoxypyridin-3-ylamino)pyrimidin-4-ylamino)isoindolin-2-yl)prop-2-en-1-one] | < 10 nM | 10 to 100 nM | < 10 nM | – | 100 to 1000 nM
16 | C=CC(=O)N1CCOc2ccc(Nc3nc(Nc4ccc(N5CCOCC5)nc4)ncc3C(C)=O)cc21 [Compound I-168, 1-{6-[5-Acetyl-2-(6-morpholin-4-yl-pyridin-3-ylamino)-pyrimidin-4-ylamino]-2,3-dihydro-benzo[1,4]oxazin-4-yl}-propenone] | < 10 nM | 10 to 100 nM | < 10 nM | – | 10 to 100 nM
17 | C=CC(=O)Nc1cccc(Nc2nc(Nc3ccc(OCCOC)nc3)ncc2F)c1 [Compound I-103, N-(3-(5-fluoro-2-(6-(2-methoxyethoxy)pyridine-3-ylamino)pyrimidin-4-ylamino)phenyl)acrylamide] | < 10 nM | < 10 nM | 10 to 100 nM | – | 10 to 100 nM
18 | C=CC(=O)Nc1cccc(Nc2nc(Nc3cccc(OCCN(C)C)c3)ncc2F)c1 [Compound I-233, N-(3-(2-(3-(2-(dimethylamino)ethoxy)phenylamino)-5-fluoropyrimidin-4-ylamino)phenyl)acrylamide] | < 10 nM | < 10 nM | < 10 nM | < 10 nM | –
19 | C=CC(=O)Nc1cccc(Nc2nc(Nc3cccc(OC)c3)ncc2OC)c1 [Compound I-158, N-(3-(5-methoxy-2-(3-methoxyphenylamino)pyrimidin-4-ylamino)phenyl)acrylamide] | < 10 nM | 10 to 100 nM | 10 to 100 nM | – | 10 to 100 nM
20 | [2H]C([2H])([2H])Oc1ccc(Nc2ncc(F)c(Nc3cccc(NC(=O)C=C)c3)n2)cn1 [Compound I-95, N-(3-(5-fluoro-2-(6-(trideutereomethoxy)pyridine-3-ylamino)pyrimidin-4-ylamino)phenyl)acrylamide] | < 10 nM | < 10 nM | 10 to 100 nM | – | 100 to 1000 nM
21 | C=CC(=O)Nc1cccc(Nc2nc(Nc3ccccc3)ncc2C#N)c1 [Compound I-157, N-(3-(5-cyano-2-(phenylamino)pyrimidin-4-ylamino)phenyl)acrylamide] | < 10 nM | < 10 nM | < 10 nM | < 10 nM | –

Reference: patent US9987276B2 (Celgene CAR LLC, priority 2008, dated 2018)
